# Measurements reported in PubChem BioAssay AID180 (DTP/NCI, 2004).
# Where “and” joins values, the source holds several entries; their conditions need not be identical. Equal entries are not always repeated.
# Test system: BDF1 mice, Adenocarcinoma 755 s.c., tumor weight T/C
# Test: NCI In Vivo Anticancer Drug Screen. Data for tumor model Adenocarcinoma 755 (subcutaneous) in B6D2F1 (BDF1) mice
# Settings: endpoint: mean tumor weight, higher = larger tumour
# Summary of the method: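 Transplantable tumor implanted; mice dosed with compound or vehicle; survival or tumor size recorded; ratio of treated to vehicle control reported.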
# [1] = dose: 15.0 mg/kg/injection, schedule: Q01DX011 (ip), vehicle: methylcellulose (MC)
# [2] = dose: 31.0 mg/kg/injection, schedule: Q01DX011 (ip), vehicle: methylcellulose (MC)
# [3] = dose: 62.0 mg/kg/injection, schedule: Q01DX011 (ip), vehicle: methylcellulose (MC)
# [4] = dose: 125.0 mg/kg/injection, schedule: Q01DX011 (ip), vehicle: methylcellulose (MC)
# [5] = dose: 30.0 mg/kg/injection, schedule: Q01DX011 (ip), vehicle: carboxymethylcellulose (CMC)
# [6] = dose: 60.0 mg/kg/injection, schedule: Q01DX011 (ip), vehicle: carboxymethylcellulose (CMC)
# [7] = dose: 120.0 mg/kg/injection, schedule: Q01DX011 (ip), vehicle: carboxymethylcellulose (CMC)
# [8] = dose: 240.0 mg/kg/injection, schedule: Q01DX011 (ip), vehicle: carboxymethylcellulose (CMC)
# [9] = dose: 250.0 mg/kg/injection, schedule: Q01DX011 (ip), vehicle: methylcellulose (MC)
# [10] = dose: 75.0 mg/kg/injection, schedule: Q01DX011 (ip), vehicle: methylcellulose (MC)
# [11] = dose: 25.0 mg/kg/injection, schedule: Q01DX011 (ip), vehicle: methylcellulose (MC)
smiles,measurement,setting,value
CCCN1CCC(=O)NC1=S,T/C,[1],81 % of control
same,T/C,[2],64 % of control
same,T/C,[3],74 % of control
same,T/C,[4],93 % of control
Nc1nc(SCc2ccccn2)c2ncn(C3CCCC3)c2n1,T/C,"dose: 1.1 mg/kg/injection, schedule: Q01DX011 (ip), vehicle: carboxymethylcellulose (CMC)",79 % of control
same,T/C,"dose: 2.3 mg/kg/injection, schedule: Q01DX011 (ip), vehicle: carboxymethylcellulose (CMC)",96 % of control
same,T/C,"dose: 4.6 mg/kg/injection, schedule: Q01DX011 (ip), vehicle: carboxymethylcellulose (CMC)",74 % of control
same,T/C,"dose: 9.3 mg/kg/injection, schedule: Q01DX011 (ip), vehicle: carboxymethylcellulose (CMC)",22 % of control
same,T/C,"dose: 37.5 mg/kg/injection, schedule: Q01DX011 (ip), vehicle: carboxymethylcellulose (CMC)",2 % of control
O=C(CCCl)N1CCc2ccccc2C1,T/C,"dose: 25.0 mg/kg/injection, schedule: Q01DX011 (sc), vehicle: olive oil, sesame oil, peanut oil",71 % of control
same,T/C,"dose: 75.0 mg/kg/injection, schedule: Q01DX011 (sc), vehicle: olive oil, sesame oil, peanut oil",99 % of control
CCOC=Nc1c(N)ncnc1F,T/C,[5],92 % of control
same,T/C,[6],89 % of control
same,T/C,[7],57 % of control
same,T/C,[8],55 % of control
Nc1nc(Cl)cc(Nc2ccccc2Br)n1,T/C,[1],66 % of control
same,T/C,[2],87 % of control
same,T/C,[3],88 % of control
same,T/C,[4],79 % of control
same,T/C,[9],121 % of control
CSc1nc(Cl)cc2nc(Cl)cn12,T/C,[5],110 % of control
same,T/C,[6],111 % of control
Nc1n[nH]c(N)n1,T/C,"dose: 300.0 mg/kg/injection, schedule: Q01DX011 (ip), vehicle: methylcellulose (MC)",55 % of control
same,T/C,"dose: 400.0 mg/kg/injection, schedule: Q01DX011 (ip), vehicle: methylcellulose (MC)",58 % of control
same,T/C,"dose: 500.0 mg/kg/injection, schedule: Q01DX011 (ip), vehicle: methylcellulose (MC)",44 % of control
CC(=O)OCC1OC(n2ncc(=O)[nH]c2=O)C(OC(C)=O)C1OC(C)=O (stereo unspecified),T/C,"dose: 187.5 mg/kg/injection, schedule: Q01DX011 (ip), vehicle: other",115 % of control
same,T/C,"dose: 375.0 mg/kg/injection, schedule: Q01DX011 (ip), vehicle: other",121 % of control
same,T/C,"dose: 1500.0 mg/kg/injection, schedule: Q01DX011 (ip), vehicle: other",43 % of control
Cc1cnc2nc(N)nc(N)c2n1,T/C,"dose: 50.0 mg/kg/injection, schedule: Q01DX011 (ip), vehicle: carboxymethylcellulose (CMC)",67 % of control
same,T/C,"dose: 75.0 mg/kg/injection, schedule: Q01DX011 (ip), vehicle: carboxymethylcellulose (CMC)",33 % of control
COc1ccccc1NC(=O)CSC(N)=O,T/C,"dose: 50.0 mg/kg/injection, schedule: Q01DX011 (ip), vehicle: methylcellulose (MC)",106 % of control
same,T/C,"dose: 400.0 mg/kg/injection, schedule: Q01DX011 (ip), vehicle: carboxymethylcellulose (CMC)",5 % of control
Nc1nnnc2nc[nH]c12,T/C,"dose: 12.5 mg/kg/injection, schedule: Q01DX011 (ip), vehicle: carboxymethylcellulose (CMC)",75 % of control
Nc1nc2c(nc(I)n2C2OC(CO)C(O)C2O)c(=O)[nH]1 (stereo unspecified),T/C,[5],94 % of control
same,T/C,[6],87 % of control
same,T/C,[7],26 % of control
same,T/C,[8],40 % of control
CCCCn1cnc2c(SCc3ccccc3Cl)nc(N)nc21,T/C,"dose: 62.5 mg/kg/injection, schedule: Q01DX011 (ip), vehicle: methylcellulose (MC)",24 % of control
same,T/C,[4],13 % of control
same,T/C,[9],5 % of control
O=C(Nc1ncnc2nc[nH]c12)C(Cl)Cl,T/C,"dose: 100.0 mg/kg/injection, schedule: Q01DX011 (ip), vehicle: saline",77 % of control
CCC1=C(c2cc(Cl)c3ccccc3c2OCC(=O)O)OC(CC)(C(=O)c2cc(Cl)c3ccccc3c2OCC(=O)O)CC1 (stereo unspecified),T/C,"dose: 30.0 mg/kg/injection, schedule: Q01DX011 (ip), vehicle: alkali diluted with saline",152 % of control
N#CCCNC(=O)Nc1ccccc1,T/C,[1],63 % of control
same,T/C,[2],74 % of control
same,T/C,[3],58 % of control
same,T/C,[4],101 % of control
same,T/C,[9],93 % of control
Cc1cnc(SCc2ccc(Cl)cc2)nc1Nc1ccc(Cl)cc1Cl,T/C,[2],97 % of control
same,T/C,[3],69 % of control
same,T/C,[4],65 % of control
same,T/C,[9],65 % of control
C[C@]12CC[C@H](OC3OC(CO)C(O)C(O)C3O)C[C@H]1CC[C@@H]1[C@@H]2CC[C@]2(C)[C@@H](C3=CCOC3=O)CC[C@]12O (stereo partly specified),T/C,"dose: 0.13 mg/kg/injection, schedule: Q01DX011 (ip), vehicle: saline",34 % of control
same,T/C,"dose: 0.25 mg/kg/injection, schedule: Q01DX011 (ip), vehicle: saline",35 % of control
same,T/C,"dose: 0.5 mg/kg/injection, schedule: Q01DX011 (ip), vehicle: saline",22 % of control and 44 % of control
same,T/C,"dose: 1.0 mg/kg/injection, schedule: Q01DX011 (ip), vehicle: saline",3 % of control
Clc1ncnc2c1ncn2C1CCCO1 (stereo unspecified),T/C,"dose: 2.34 mg/kg/injection, schedule: Q01DX011 (ip), vehicle: methylcellulose (MC)",50 % of control
same,T/C,"dose: 4.68 mg/kg/injection, schedule: Q01DX011 (ip), vehicle: methylcellulose (MC)",68 % of control
same,T/C,"dose: 9.37 mg/kg/injection, schedule: Q01DX011 (ip), vehicle: methylcellulose (MC)",69 % of control
same,T/C,"dose: 18.75 mg/kg/injection, schedule: Q01DX011 (ip), vehicle: methylcellulose (MC)",41 % of control
same,T/C,"dose: 37.5 mg/kg/injection, schedule: Q01DX011 (ip), vehicle: methylcellulose (MC)",9 % of control
same,T/C,[10],1 % of control
Brc1ncc2[nH]cnc2n1,T/C,[11],79 % of control
same,T/C,[10],75 % of control
CC1([CH2][Hg][I])OCCOC1[CH2][Hg][I] (stereo unspecified),T/C,"dose: 2.5 mg/kg/injection, schedule: Q01DX011 (ip), vehicle: saline",57 % of control
same,T/C,"dose: 5.0 mg/kg/injection, schedule: Q01DX011 (ip), vehicle: saline",71 % of control
same,T/C,"dose: 10.0 mg/kg/injection, schedule: Q01DX011 (ip), vehicle: saline",57 % of control
same,T/C,"dose: 10.9 mg/kg/injection, schedule: Q01DX011 (ip), vehicle: saline",36 % of control
same,T/C,"dose: 11.0 mg/kg/injection, schedule: Q01DX011 (ip), vehicle: carboxymethylcellulose (CMC)",87 % of control
same,T/C,"dose: 20.0 mg/kg/injection, schedule: Q01DX011 (ip), vehicle: saline",7 % of control
CC(=O)OCC(=O)[C@@]1(O)CC[C@H]2[C@@H]3C[C@H](C)C4=CC(=O)CC[C@]4(C)[C@H]3[C@@H](O)C[C@@]21C,T/C,"dose: 2.75 mg/kg/injection, schedule: Q01DX011 (sc), vehicle: steriod suspending solution",73 % of control
same,T/C,"dose: 5.5 mg/kg/injection, schedule: Q01DX011 (sc), vehicle: steriod suspending solution",55 % of control and 71 % of control
same,T/C,"dose: 22.0 mg/kg/injection, schedule: Q01DX011 (sc), vehicle: water",19 % of control
same,T/C,"dose: 44.0 mg/kg/injection, schedule: Q01DX011 (sc), vehicle: steriod suspending solution",42 % of control
same,T/C,"dose: 44.0 mg/kg/injection, schedule: Q01DX011 (sc), vehicle: water",14 % of control and 20 % of control
same,T/C,"dose: 87.0 mg/kg/injection, schedule: Q01DX011 (sc), vehicle: steriod suspending solution",50 % of control
same,T/C,"dose: 87.5 mg/kg/injection, schedule: Q01DX011 (sc), vehicle: water",11 % of control and 15 % of control
same,T/C,"dose: 175.0 mg/kg/injection, schedule: Q01DX011 (sc), vehicle: steriod suspending solution",25 % of control
same,T/C,"dose: 175.0 mg/kg/injection, schedule: Q01DX011 (sc), vehicle: water",3 % of control and 4 % of control
Cc1ccc(/C=N/Nc2nc3c(c(=O)n(C)c(=O)n3C)n2C)cc1,T/C,[11],77 % of control
same,T/C,[10],60 % of control
same,T/C,"dose: 225.0 mg/kg/injection, schedule: Q01DX011 (ip), vehicle: methylcellulose (MC)",39 % of control
